Consider 38 compounds from ChEMBL document CHEMBL3352620, “Development of potent antagonists for formyl peptide receptor 1 based on Boc-Phe-D-Leu-Phe-D-Leu-Phe-OH” (Bioorg Med Chem, 2014).

The target of test [1] is T1, fMet-Leu-Phe receptor (Homo sapiens, UniProt P21462).
T1 sequence (P21462 whole entry): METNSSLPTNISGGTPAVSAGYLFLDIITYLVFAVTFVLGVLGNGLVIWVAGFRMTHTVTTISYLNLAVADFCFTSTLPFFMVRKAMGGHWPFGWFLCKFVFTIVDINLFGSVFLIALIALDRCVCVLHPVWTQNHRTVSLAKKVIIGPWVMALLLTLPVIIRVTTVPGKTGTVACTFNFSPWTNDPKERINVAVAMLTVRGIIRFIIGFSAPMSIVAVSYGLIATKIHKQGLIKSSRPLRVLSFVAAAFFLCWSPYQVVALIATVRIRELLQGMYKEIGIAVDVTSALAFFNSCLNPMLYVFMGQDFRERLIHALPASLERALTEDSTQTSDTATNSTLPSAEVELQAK
Description: Antagonist activity at formyl peptide receptor in human HL60 cells assessed as inhibition of intracellular calcium mobilization incubated for 5 mins prior to fMLP challenge by Fura-2 method. The class given is functional, cell-based, HL-60. (Calcium flux is commonly read through the fluorescence of an indicator in the cells.)

Test [2] deals with T2, fMet-Leu-Phe receptor (Homo sapiens) (UniProt P21462).
T2 sequence (whole entry): T1 sequence (P21462 whole entry)
Description: Antagonist activity at formyl peptide receptor in human HL60 cells assessed as inhibition of MMK1-induced calcium mobilization at 1 to 10 uM incubated for 5 mins prior to MMk1 challenge by Fura-2 method. The class given is functional, cell-based. The note with it: HL-60.

In test [3] the target is T1, fMet-Leu-Phe receptor. The test can be described thus: Antagonist activity at formyl peptide receptor in human HL60 cells assessed as inhibition of fMLP-induced calcium mobilization incubated for 5 mins prior to fMLP challenge by Fura-2 method.
In test [4] the target is T2, fMet-Leu-Phe receptor (Homo sapiens). Description: Agonist activity at formyl peptide receptor in human HL60 cells at 10 uM by Fura-2 method. The class given is cell-based. The settings on record: HL-60.
Test [5] shares this target. Description: Antagonist activity at formyl peptide receptor in human HL60 cells assessed as fMLP EC50 at 1 uM incubated for 5 mins prior to fMLP challenge by Fura-2 method. The class given is cell-based. The note with it: HL-60.

Active and inactive are the calls of the source. The calls are words filed in the database; no cut-off is given here. Square brackets hold non-standard residues; d marks the D form. Peptide text beside a SMILES is read from it. * marks the point of attachment. Boc = CC(C)(C)OC(=O)* A value given as a limit tells only on which side of the number the result lay.

As usually defined, the Kd is the constant that tells how readily two partners part at equilibrium. Broadly, the IC50 is the concentration that inhibits the measured activity by half. As to `CC(C)C[C@@H](NC(=O)[C@H](Cc1ccccc1)NC(=O)[C@@H](CC(C)C)NC(=O)[C@H](Cc1ccc(C(=O)c2ccccc2)cc1)NC(=O)OC(C)(C)C)C(=O)N[C@@H](Cc1ccccc1)C(=O)O`, in test [1], the dissociation constant (Kd) turned out to be 16 nM. Further, the inhibition entry in test [2] is “inactive”. Also, the half-inhibitory concentration (IC50) in test [3] amounted to 420 nM.
Take `CC(C)C[C@@H](NC(=O)[C@H](Cc1ccccc1)NC(=O)[C@@H](CC(C)C)NC(=O)[C@H](Cc1cn(C=O)c2ccccc12)NC(=O)OC(C)(C)C)C(=O)N[C@@H](Cc1ccccc1)C(=O)O`: in test [1], the Kd turned out to be 90 nM.
The same measure, in the same setting: the result for `CC(C)C[C@@H](NC(=O)[C@H](Cc1ccccc1)NC(=O)[C@@H](CC(C)C)NC(=O)[C@H](Cc1ccc(Cl)cc1)NC(=O)OC(C)(C)C)C(=O)N[C@@H](Cc1ccccc1)C(=O)O` reads 75 nM.
Turning to `CC(C)C[C@H](NC(=O)OC(C)(C)C)C(=O)N[C@H](CC(C)C)C(=O)N[C@@H](Cc1ccccc1)C(=O)N[C@H](CC(C)C)C(=O)N[C@@H](Cc1ccccc1)C(=O)O`, the dissociation constant Kd in test [1] was found to be 200 nM.
For the compound `CC(C)C[C@@H](NC(=O)[C@H](Cc1ccccc1)NC(=O)[C@@H](CC(C)C)NC(=O)[C@H](CCCCNC(=O)c1ccccc1)NC(=O)OC(C)(C)C)C(=O)N[C@@H](Cc1ccccc1)C(=O)O`, the Kd in test [1] stood at 140 nM.
Same read-out and setting: the result for `CC(C)C[C@@H](NC(=O)[C@H](CCCCNC(=O)OC(C)(C)C)NC(=O)[C@@H](CC(C)C)NC(=O)[C@H](Cc1ccccc1)NC(=O)OC(C)(C)C)C(=O)N[C@@H](Cc1ccccc1)C(=O)O` reads over 1000 nM; that for `CC(C)C[C@@H](NC(=O)[C@H](Cc1ccccc1)NC(=O)[C@@H](CC(C)C)NC(=O)[C@H](Cc1ccccc1)NC(=O)OC(C)(C)C)C(=O)N[C@@H](Cc1c[nH]c2ccccc12)C(=O)O`, 150 nM.
As to `CC(C)C[C@@H](NC(=O)[C@H](Cc1ccccc1)NC(=O)[C@H](C)NC(=O)[C@H](Cc1ccccc1)NC(=O)OC(C)(C)C)C(=O)N[C@@H](Cc1ccccc1)C(=O)O`, in test [1], the Kd came to 260 nM. Besides, in test [4], the outcome was inactive.
As to `CC(C)C[C@@H](NC(=O)[C@H](Cc1ccccc1)NC(=O)OC(C)(C)C)C(=O)N[C@H](C(=O)N[C@H](CC(C)C)C(=O)N[C@@H](Cc1ccccc1)C(=O)O)[C@@H](C)OC(C)(C)C`, the Kd in test [1] was 830 nM.
In the case of `CC(C)C[C@@H](NC(=O)[C@H](Cc1ccccc1)NC(=O)[C@@H](CC(C)C)NC(=O)[C@H](Cc1ccccc1)NC(=O)OC(C)(C)C)C(=O)N[C@@H](Cc1ccc(C(=O)c2ccccc2)cc1)C(=O)O`, in test [1], the dissociation constant (Kd) turned out to be 150 nM.
On to `CC(C)C[C@@H](NC(=O)[C@H](Cc1ccccc1)NC(=O)[C@@H](CC(C)C)NC(=O)[C@H](CC1CCCCC1)NC(=O)OC(C)(C)C)C(=O)N[C@@H](Cc1ccccc1)C(=O)O`, for which, in test [1], the dissociation constant (Kd) was determined as 66 nM.
Consider `CC(C)C[C@@H](NC(=O)[C@H](Cc1ccccc1)NC(=O)[C@@H](CC(C)C)NC(=O)[C@H](Cc1ccccc1)NC(=O)OC(C)(C)C)C(=O)N[C@@H](CC1CCCCC1)C(=O)O`, for which, in test [1], the dissociation constant (Kd) turned out to be 77 nM.
`CC(C)C[C@@H](NC(=O)[C@H](Cc1ccccc1)NC(=O)OC(C)(C)C)C(=O)N[C@@H](Cc1ccccc1)C(=O)N[C@@H](C)C(=O)N[C@@H](Cc1ccccc1)C(=O)O`: the Kd in test [1] was 420 nM. Also, the result in test [4] was inactive.
For `CC(C)C[C@@H](NC(=O)[C@H](Cc1ccccc1)NC(=O)[C@@H](CC(C)C)NC(=O)[C@H](Cc1ccccc1)NC(=O)OC(C)(C)C)C(=O)N[C@@H](Cc1cn(C(=O)OC(C)(C)C)c2ccccc12)C(=O)O`, in test [1], the dissociation constant (Kd) worked out at 120 nM.
Consider `CC(C)C[C@@H](NC(=O)[C@H](Cc1ccccc1)NC(=O)[C@@H](CC(C)C)NC(=O)[C@H](Cc1ccc(OC(C)(C)C)cc1)NC(=O)OC(C)(C)C)C(=O)N[C@@H](Cc1ccccc1)C(=O)O`, for which, in test [1], the equilibrium dissociation constant (Kd) was 62 nM.
Turning to `CC(C)C[C@@H](NC(=O)[C@H](Cc1ccccc1)NC(=O)OC(C)(C)C)C(=O)N[C@@H](Cc1ccccc1)C(=O)N[C@H](CC(C)C)C(=O)N[C@H](C(=O)O)C(C)C`, the Kd in test [1] was found to be 260 nM.
Still for that read-out and setting: the result for `CC(C)C[C@@H](NC(=O)[C@H](Cc1ccccc1)NC(=O)[C@@H](CC(C)C)NC(=O)[C@@H](NC(=O)OC(C)(C)C)[C@@H](C)OC(C)(C)C)C(=O)N[C@@H](Cc1ccccc1)C(=O)O` reads 140 nM.
Still for that read-out and setting: under `CC(C)C[C@@H](NC(=O)[C@H](CC1=CCCCC1)NC(=O)[C@@H](CC(C)C)NC(=O)[C@H](Cc1ccc(C(=O)c2ccccc2)cc1)NC(=O)OC(C)(C)C)C(=O)N[C@@H](CC1CCCCC1)C(=O)O` stands 6.9 nM; under `CC(C)C[C@H](NC(=O)[C@@H](CC(C)C)NC(=O)[C@H](Cc1ccccc1)NC(=O)OC(C)(C)C)C(=O)N[C@H](CC(C)C)C(=O)N[C@@H](Cc1ccccc1)C(=O)O`, 200 nM.
Still for that read-out and setting: under `CSCC[C@H](NC(=O)[C@@H](CC(C)C)NC(=O)[C@H](Cc1ccccc1)NC(=O)OC(C)(C)C)C(=O)N[C@H](CC(C)C)C(=O)N[C@@H](Cc1ccccc1)C(=O)O` stands 130 nM; under `CC(C)C[C@@H](NC(=O)[C@H](Cc1ccccc1)NC(=O)[C@@H](CC(C)C)NC(=O)[C@H](CCCCN)NC(=O)OC(C)(C)C)C(=O)N[C@@H](Cc1ccccc1)C(=O)O`, 730 nM.
Turning to `CC(C)C[C@@H](NC(=O)[C@H](Cc1ccccc1)NC(=O)[C@@H](CC(C)C)NC(=O)[C@H](CCCCNC(=O)C1CCCCC1)NC(=O)OC(C)(C)C)C(=O)N[C@@H](Cc1ccccc1)C(=O)O`, the dissociation constant Kd in test [1] is 150 nM.
Same read-out and setting: under `CC(C)C[C@@H](NC(=O)[C@H](Cc1ccc(C(=O)c2ccccc2)cc1)NC(=O)[C@@H](CC(C)C)NC(=O)[C@H](Cc1ccccc1)NC(=O)OC(C)(C)C)C(=O)N[C@@H](Cc1ccccc1)C(=O)O` stands 150 nM.
Still for that read-out and setting: the result for `CC(C)C[C@@H](NC(=O)[C@H](Cc1ccccc1)NC(=O)[C@@H](CC(C)C)NC(=O)[C@H](COC(C)(C)C)NC(=O)OC(C)(C)C)C(=O)N[C@@H](Cc1ccccc1)C(=O)O` reads 100 nM.
For `CC(C)C[C@@H](NC(=O)[C@H](Cc1ccccc1)NC(=O)[C@@H](CC(C)C)NC(=O)[C@H](Cc1ccccc1)NC(=O)OC(C)(C)C)C(=O)N[C@@H](Cc1ccccc1)C(=O)O` (Boc-F[dL]F[dL]F-OH), the result in test [4] was inactive. Also, the inhibition entry in test [5] was “inactive”.
Take `CC(C)C[C@@H](NC(=O)[C@H](Cc1ccccc1)NC(=O)OC(C)(C)C)C(=O)N[C@@H](Cc1ccccc1)C(=O)N[C@H](CC(C)C)C(=O)N[C@H](C(=O)O)[C@@H](C)OC(C)(C)C`: the Kd in test [1] was determined as 130 nM.
With `CC(C)C[C@@H](NC(=O)[C@H](CC(=O)OC(C)(C)C)NC(=O)[C@@H](CC(C)C)NC(=O)[C@H](Cc1ccccc1)NC(=O)OC(C)(C)C)C(=O)N[C@@H](Cc1ccccc1)C(=O)O`, in test [1], the dissociation constant (Kd) amounted to 510 nM.
On to `CC(C)C[C@@H](NC(=O)[C@H](Cc1ccccc1)NC(=O)[C@@H](CC(C)C)NC(=O)[C@H](Cc1c[nH]c2ccccc12)NC(=O)OC(C)(C)C)C(=O)N[C@@H](Cc1ccccc1)C(=O)O`, for which the Kd in test [1] came out at 190 nM.
Turning to `CC(C)C[C@@H](NC(=O)[C@H](Cc1ccccc1)NC(=O)OC(C)(C)C)C(=O)N[C@H](C(=O)N[C@H](CC(C)C)C(=O)N[C@@H](Cc1ccccc1)C(=O)O)C(C)C`, the Kd in test [1] is over 1000 nM.
In the case of `CC(C)C[C@@H](NC(=O)[C@H](Cc1ccccc1)NC(=O)[C@@H](CC(C)C)NC(=O)[C@H](Cc1ccccc1)NC(=O)OC(C)(C)C)C(=O)N[C@@H](C)C(=O)O`, the equilibrium dissociation constant (Kd) in test [1] was determined as 350 nM. Besides, the result in test [4] was inactive.
As for `CC(C)C[C@@H](NC(=O)[C@H](CC1CCCCC1)NC(=O)[C@@H](CC(C)C)NC(=O)[C@H](Cc1ccccc1)NC(=O)OC(C)(C)C)C(=O)N[C@@H](Cc1ccccc1)C(=O)O`, the equilibrium dissociation constant (Kd) in test [1] is 25 nM.
For the compound `CC(C)C[C@@H](NC(=O)[C@H](C)NC(=O)OC(C)(C)C)C(=O)N[C@@H](Cc1ccccc1)C(=O)N[C@H](CC(C)C)C(=O)N[C@@H](Cc1ccccc1)C(=O)O`, the Kd in test [1] came out at 170 nM. Also, in test [4], the outcome was inactive.
As for `CC(C)C[C@@H](NC(=O)[C@H](Cc1ccccc1)NC(=O)[C@@H](CC(C)C)NC(=O)[C@H](Cc1ccccc1)NC(=O)OC(C)(C)C)C(=O)N[C@@H](Cc1ccc(OC(C)(C)C)cc1)C(=O)O`, the Kd in test [1] was 68 nM.
Consider `CC(C)C[C@@H](NC(=O)[C@H](C)NC(=O)[C@@H](CC(C)C)NC(=O)[C@H](Cc1ccccc1)NC(=O)OC(C)(C)C)C(=O)N[C@@H](Cc1ccccc1)C(=O)O`, for which, in test [1], the Kd is 280 nM. The result in test [4] was inactive.
With `CC(C)C[C@@H](NC(=O)[C@H](CC1=CCCCC1)NC(=O)[C@@H](CC(C)C)NC(=O)[C@H](Cc1ccc(C(=O)c2ccccc2)cc1)NC(=O)OC(C)(C)C)C(=O)N[C@@H](Cc1ccccc1)C(=O)O`, the dissociation constant Kd in test [1] came to 2.1 nM. Besides, in test [2], the inhibition entry is “inactive”. Besides, the IC50 in test [3] is 140 nM.
In the case of `CC(C)C[C@@H](NC(=O)[C@H](Cc1ccccc1)NC(=O)[C@@H](CC(C)C)NC(=O)[C@H](Cc1cn(C(=O)OC(C)(C)C)c2ccccc12)NC(=O)OC(C)(C)C)C(=O)N[C@@H](Cc1ccccc1)C(=O)O`, the Kd in test [1] was found to be 69 nM.
Still for that read-out and setting: the result for `CC(C)C[C@H](NC(=O)[C@@H](CC(C)C)NC(=O)[C@H](Cc1ccccc1)NC(=O)[C@@H](CC(C)C)NC(=O)[C@H](Cc1ccccc1)NC(=O)OC(C)(C)C)C(=O)O` reads 130 nM; that for `CC(C)C[C@@H](NC(=O)[C@H](Cc1ccccc1)NC(=O)[C@@H](CC(C)C)NC(=O)[C@H](Cc1ccccc1)NC(=O)OC(C)(C)C)C(=O)N[C@@H](COC(C)(C)C)C(=O)O`, 180 nM.
